Source: patent US12599136B2, “Substituted isophthalic acid diamides and their use as herbicides” (Bayer Aktiengesellschaft, priority 2020, dated 2026)

Experiments:
Assay type in all cases: in vivo
[1] = test system: Echinochloa crus-galli; experiment: Post-emergence herbicidal action against ECHCG; conditions: 20 g/ha, visual assessment about 3 weeks after treatment
Protocol: (§1) Seeds of monocotyledonous and dicotyledonous weed and crop plants are laid out in sandy loam soil in wood-fiber pots, covered with soil and cultivated in a greenhouse under good growth conditions. 2 to 3 weeks after sowing, the test plants are treated at the one-leaf stage. The compounds of the invention, formulated in the form of wettable powders (WP) or as emulsion concentrates (EC), are then sprayed onto the green parts of the plants in the form of an aqueous suspension or emulsion at a water application rate equivalent to 600 to 800 l/ha, with addition of 0.2% wetting agent. After the test plants have been left to stand in the greenhouse under optimal growth conditions for about 3 weeks, the action of the preparations is assessed visually in comparison to untreated controls (herbicidal action in percent (%): 100% activity=the plants have died, 0% activity=like control plants). […] The tables below illustrate, in an illustrative manner, the post-emergence herbicidal action of the compounds of the invention, the herbicidal activity being stated in percent.

[2] = test system: Abutilon theophrasti; experiment: Post-emergence herbicidal action against ABUTH
Protocol: as §1

[3] = test system: Pharbitis purpurea; experiment: Post-emergence herbicidal action against PHBPU; conditions: 20 g/ha, visual assessment about 3 weeks after treatment
Protocol: as §1

[4] = test system: Amaranthus retroflexus; experiment: Post-emergence herbicidal action against AMARE; conditions: visual assessment about 3 weeks after treatment
Protocol: as §1

[5] = test system: Matricaria inodora; experiment: Pre-emergence herbicidal action against MATIN; conditions: visual score after 3 weeks vs untreated controls
From the text: (§2) Seeds of monocotyledonous and dicotyledonous weed plants and crop plants are laid out in sandy loam soil in wood-fiber pots and covered with soil. The compounds of the invention, formulated in the form of wettable powders (WP) or as emulsion concentrates (EC), are then applied to the surface of the covering soil in the form of an aqueous suspension or emulsion at a water application rate equivalent to 600 to 800 l/ha, with addition of 0.2% wetting agent. After the treatment, the pots are placed in a greenhouse and kept under good growth conditions for the trial plants. The damage to the test plants is scored visually after a test period of 3 weeks by comparison with untreated controls (herbicidal activity in percent (%): 100% activity=the plants have died, 0% activity=like control plants). […] The tables below illustrate, in an illustrative manner, the post-emergence herbicidal action of the compounds of the invention, the herbicidal activity being stated in percent.

[6] = test system: Alopecurus myosuroides; experiment: Post-emergence herbicidal action against ALOMY
Protocol: as §1

[7] = test system: Avena fatua; experiment: Pre-emergence herbicidal action against AVEFA; conditions: 80 g/ha; visual score after 3 weeks vs untreated controls
From the text: as §2

[8] = test system: Setaria viridis; experiment: Pre-emergence herbicidal action against SETVI; conditions: 80 g/ha
From the text: as §2

[9] = test system: Lolium rigidum; experiment: Pre-emergence herbicidal action against LOLRI; conditions: 80 g/ha
From the text: as §2

[10] = test system: Abutilon theophrasti; experiment: Pre-emergence herbicidal action against ABUTH; conditions: visual score after 3 weeks vs untreated controls
From the text: as §2

[11] = test system: Alopecurus myosuroides; experiment: Pre-emergence herbicidal action against ALOMY; conditions: 80 g/ha; visual score after 3 weeks vs untreated controls
From the text: as §2

[12] = test system: Viola tricolor; experiment: Post-emergence herbicidal action against VIOTR
Protocol: as §1

[13] = test system: Echinochloa crus-galli; experiment: Pre-emergence herbicidal action against ECHCG; conditions: 80 g/ha; visual score after 3 weeks vs untreated controls
From the text: as §2

[14] = test system: Setaria viridis; experiment: Post-emergence herbicidal action against SETVI; conditions: visual assessment about 3 weeks after treatment
Protocol: as §1

[15] = test system: Amaranthus retroflexus; experiment: Pre-emergence herbicidal action against AMARE; conditions: visual score after 3 weeks vs untreated controls
From the text: as §2

[16] = test system: Viola tricolor; experiment: Pre-emergence herbicidal action against VIOTR; conditions: 80 g/ha
From the text: as §2

[17] = test system: Polygonum convolvulus; experiment: Pre-emergence herbicidal action against POLCO; conditions: 80 g/ha
From the text: as §2

[18] = test system: Matricaria inodora; experiment: Post-emergence herbicidal action against MATIN; conditions: 20 g/ha, visual assessment about 3 weeks after treatment
Protocol: as §1

[19] = test system: Veronica persica; experiment: Post-emergence herbicidal action against VERPE; conditions: 20 g/ha, visual assessment about 3 weeks after treatment
Protocol: as §1

[20] = test system: Avena fatua; experiment: Post-emergence herbicidal action against AVEFA; conditions: 20 g/ha, visual assessment about 3 weeks after treatment
Protocol: as §1

[21] = test system: Veronica persica; experiment: Pre-emergence herbicidal action against VERPE; conditions: 80 g/ha
From the text: as §2

CCN(C)C(=O)c1c(Br)ccc(C(=O)Nc2nnnn2C)c1Cl [Example 1-192]
Post-emergence action against ECHCG in % [1]: 100%
Post-emergence action against ABUTH ([2]; 5 g/ha): 90%
Post-emergence action against ABUTH ([2]; 20 g/ha): 90%
Post-emergence action against PHBPU in % [3]: 80%
Post-emergence action against AMARE in % ([4]; 5 g/ha): 100%
Post-emergence action against AMARE in % ([4]; 20 g/ha): 100%
Pre-emergence action against MATIN ([5]; 80 g/ha): 100%
Post-emergence action against ALOMY ([6]; 5 g/ha): 90%
Post-emergence action against ALOMY ([6]; 20 g/ha): 100%
Pre-emergence action against AVEFA [7]: 80%
Pre-emergence action against SETVI [8]: 100%
Pre-emergence action against LOLRI [9]: 80%
Pre-emergence action against ABUTH ([10]; 20 g/ha): 80%
Pre-emergence action against ABUTH ([10]; 80 g/ha): 100%
Pre-emergence action against ALOMY [11]: 100%
Post-emergence action against VIOTR in % ([12]; 20 g/ha): 80%
Pre-emergence action against ECHCG [13]: 80%
Post-emergence action against SETVI in % ([14]; 5 g/ha): 100%
Post-emergence action against SETVI in % ([14]; 20 g/ha): 100%
Pre-emergence action against AMARE ([15]; 20 g/ha): 80%
Pre-emergence action against AMARE ([15]; 80 g/ha): 100%
Pre-emergence action against VIOTR [16]: 100%

CCN(C)C(=O)c1c(C(F)F)ccc(C(=O)Nc2nnnn2CC)c1C [Example 2-51]
Post-emergence action against ECHCG in % [1]: 90%
Pre-emergence action against POLCO [17]: 90%
Post-emergence action against ABUTH ([2]; 5 g/ha): 90%
Post-emergence action against ABUTH ([2]; 20 g/ha): 90%
Post-emergence action against AMARE in % ([4]; 5 g/ha): 90%
Post-emergence action against AMARE in % ([4]; 20 g/ha): 100%
Pre-emergence action against MATIN ([5]; 20 g/ha): 90%
Pre-emergence action against MATIN ([5]; 80 g/ha): 100%
Post-emergence action against ALOMY ([6]; 5 g/ha): 80%
Post-emergence action against ALOMY ([6]; 20 g/ha): 90%
Pre-emergence action against AVEFA [7]: 80%
Post-emergence action against MATIN in % [18]: 80%
Post-emergence action against VERPE in % [19]: 90%
Pre-emergence action against ABUTH ([10]; 20 g/ha): 100%
Pre-emergence action against ABUTH ([10]; 80 g/ha): 100%
Pre-emergence action against ALOMY [11]: 100%
Post-emergence action against VIOTR in % ([12]; 5 g/ha): 90%
Post-emergence action against VIOTR in % ([12]; 20 g/ha): 90%
Post-emergence action against SETVI in % ([14]; 5 g/ha): 80%
Post-emergence action against SETVI in % ([14]; 20 g/ha): 90%
Pre-emergence action against AMARE ([15]; 20 g/ha): 90%
Pre-emergence action against AMARE ([15]; 80 g/ha): 90%
Pre-emergence action against VIOTR [16]: 80%

CCN(C)C(=O)c1c(Br)ccc(C(=O)Nc2nnnn2CC)c1Cl [Example 2-192]
Post-emergence action against ECHCG in % [1]: 100%
Post-emergence action against AVEFA in % [20]: 80%
Post-emergence action against ABUTH ([2]; 5 g/ha): 80%
Post-emergence action against ABUTH ([2]; 20 g/ha): 80%
Post-emergence action against PHBPU in % [3]: 80%
Post-emergence action against AMARE in % ([4]; 5 g/ha): 100%
Post-emergence action against AMARE in % ([4]; 20 g/ha): 100%
Pre-emergence action against MATIN ([5]; 20 g/ha): 100%
Pre-emergence action against MATIN ([5]; 80 g/ha): 100%
Post-emergence action against ALOMY ([6]; 5 g/ha): 80%
Post-emergence action against ALOMY ([6]; 20 g/ha): 100%
Pre-emergence action against AVEFA [7]: 80%
Pre-emergence action against VERPE [21]: 80%
Pre-emergence action against SETVI [8]: 100%
Pre-emergence action against LOLRI [9]: 80%
Pre-emergence action against ABUTH ([10]; 20 g/ha): 100%
Pre-emergence action against ABUTH ([10]; 80 g/ha): 100%
Pre-emergence action against ALOMY [11]: 100%
Post-emergence action against VIOTR in % ([12]; 20 g/ha): 100%
Pre-emergence action against ECHCG [13]: 90%
Post-emergence action against SETVI in % ([14]; 5 g/ha): 100%
Post-emergence action against SETVI in % ([14]; 20 g/ha): 100%
Pre-emergence action against AMARE ([15]; 20 g/ha): 100%
Pre-emergence action against AMARE ([15]; 80 g/ha): 100%
Pre-emergence action against VIOTR [16]: 100%
